Assay results published in US20250134874A1, “PHARMACEUTICAL FORMULATIONS COMPRISING 3-({[(4R)-7-{METHYL[4-(PROPAN-2-YL)PHENYL]AMINO}-3,4-DIHYDRO-2H-1-BENZOPYRAN-4-YL]METHYL}AMINO)PYRIDINE-4-CARBOXYLIC ACID” (TACHYON THERAPEUTICS, INC., priority 2021, published 2025).

Test system: 301 cancer cell lines from different tumor types (OncoPanel; HD Biosciences)
Assay: 2D cell viability inhibition assay (CellTiter-Glo) in cancer cell line panel
Assay type: cell-based
Design: key to AUC: AUC as fraction of the no-inhibition area (dose range × 0–100 % of control)
Conditions: for Emax: in %
Procedure: In a larger screening study, compound 1 was evaluated across a broad cancer cell line panel (OncoPanel; HD Biosciences) composed of 301 cancer cell lines from different tumor types.
2D cell viability inhibition assays were performed in multiwell plates seeded with cells from the panel. After seeding, the plates were cultured overnight in a humidified incubator at 37° C. to promote adherence. Assays were initiated in individual wells by adding either DMSO as a vehicle control, growth media as a blank, or serially diluted compound 1 (10 μM to 0.0005 μM with 1:3 serial dilution). Cultures were incubated for 168 hours after which the number of viable cells in each test well was assessed using the CellTiter-Glo® Luminescent Cell Viability Assay. Luminescence readouts were performed using an EnVision® Multilabel Reader and the compound 1 readouts were normalized to the DMSO control readouts, expressed as a percent of the control. Outliers were flagged out by visual inspection. Percent of control was plotted against the corresponding compound 1 concentration and the absolute IC50 value was determined using four-parameter logistic non-linear regression as the concentration where inhibition was 50% of the control. For maximum inhibition <50%, the absolute IC50 was reported as >10. In addition to EC50 and IC50, AUC was determined and was normalized to the area corresponding to theoretical no-inhibition (the rectangular area defined by the compound dose range and 0 to 100 in y). Emax was recorded as the minimum in y with the compound dose range. For those cell lines where Emax>40, EC50 was manually set to 10 μM. A hierarchical clustering algorithm based on Euclidean distance between the standardized input values and “Ward.D” method as implemented in R hclust function was used to visualize the compound 1 cellular potency data. The sensitive/moderate/resistant calls for each cell line was determined by visually inspecting the resulting clustering dendrogram. All the analyses were done in R Core Team.

## CC(C)c1ccc(N(C)c2ccc3c(c2)OCC[C@H]3CNc2cnccc2C(=O)O)cc1 [Compound 1, 3-({[(4R)-7-{methyl[4-(propan-2-yl)phenyl]amino}-3,4-dihydro-2H-1-benzopyran-4-yl]methyl}amino)pyridine-4-carboxylic acid]
RPMI7951, skin, NS, 168 hours
  AUC: 0.8067
RPMI8226 cell line
  AUC: 0.4363
  Emax: 12.46
RT11284 cell line
  AUC: 0.3717
SAOS2, bone, NS, 168 hours
  AUC: 1.081
SCABER cell line
  AUC: 0.5687
  Emax: 32.32
SCC4 cell line
  AUC: 0.4619
  Emax: 26.08
SCC9, upper aerodigestive tract, squamous cell carcinoma, 168 hours
  AUC: 0.9424
SCC15, upper aerodigestive tract, squamous cell carcinoma, 168 hours
  AUC: 0.9489
SCC25, upper aerodigestive tract, squamous cell carcinoma, 168 hours
  AUC: 0.7789
SHSY5Y cell line
  AUC: 0.4927
  Emax: 25.04
SKBR3 cell line
  AUC: 0.4396
  Emax: 26.59
SKCO1 cell line
  AUC: 0.5952
SKHEP1, liver, adenocarcinoma, 168 hours
  AUC: 0.7091
SKLU1 cell line
  AUC: 0.5662
SKMEL1 cell line
  AUC: 0.4427
  Emax: 22.0664
SKMEL2 cell line
  AUC: 0.6392
SKMEL3 cell line
  AUC: 0.6207
SKMEL5 cell line
  AUC: 0.4074
  Emax: 8.228
SKMEL24, skin, NS, 168 hours
  AUC: 0.7882
SKMEL28 cell line
  AUC: 0.2796
SKMEL31, skin, NS, 168 hours
  AUC: 0.7393
SKMES1 cell line
  AUC: 0.6069
SKNSH, autonomic ganglia, NS, 168 hours
  AUC: 0.7295
SKOV3, ovary, adenocarcinoma, 168 hours
  AUC: 0.9901
SNB19 cell line
  AUC: 0.4677
  Emax: 20.73
SNGM cell line
  AUC: 0.9165
  EC50: 4140 nM
  IC50: 4900 nM
SNU5 cell line
  AUC: 0.6837
SNU16 cell line
  AUC: 0.2821
SNU398 cell line
  AUC: 0.4911
  Emax: 25.8616
SNU668, SNU668 cell line
  EC50: 12.8 nM
  IC50: 18.9 nM
SNU668 cell line
  AUC: 0.464
SNU761 cell line
  AUC: 0.5814
  EC50: ≥ 10000 nM
  IC50: 39.7 nM
SNU878, SNU878 cell line
  IC50: > 10000 nM
SNU878 cell line
  AUC: 0.6648
SNU886 cell line
  AUC: 0.6425
SNU-886, SNU886 cell line
  IC50: > 10000 nM
SNUC1, large intestine, adenocarcinoma, 168 hours
  AUC: 0.7478
SNUC2A cell line
  AUC: 0.615
  EC50: 24.5 nM
  IC50: 52.5 nM
SUPT1 cell line
  AUC: 0.6913
SW48 cell line
  AUC: 0.6038
SW480 cell line
  AUC: 0.409
  Emax: 20.36
SW579, 168 h, SW579, thyroid, anaplastic carcinoma, 168 hours
  IC50: > 10000 nM
SW579, thyroid, anaplastic carcinoma, 168 hours
  AUC: 0.9203
SW620 cell line
  AUC: 0.4658
SW780 cell line
  AUC: 0.4491
  Emax: 13.9761
SW837, large intestine, adenocarcinoma, 168 hours
  AUC: 0.7109
SW1271, 168 h, SW1271, lung, small cell carcinoma, 168 hours
  IC50: > 10000 nM
SW1271, lung, small cell carcinoma, 168 hours
  AUC: 0.8179
SW1417, large intestine, adenocarcinoma, 168 hours
  AUC: 0.9634
SW1463 cell line
  AUC: 0.3408
  Emax: 7.126
SW1710 cell line
  AUC: 0.5768
SW1990 cell line
  AUC: 0.6894
T24, urinary tract, transitional cell carcinoma, 168 hours
  AUC: 0.9289
T84 cell line
  AUC: 0.4928
T.T cell line
  AUC: 0.4321
  Emax: 24.08
TALL1 cell line
  AUC: 0.1999
TE1, oesophagus, squamous cell carcinoma, 168 hours
  AUC: 0.938
TE4 cell line
  AUC: 0.3948
  EC50: 9.11 nM
  IC50: 12.7 nM
  Emax: 11.49
TE5 cell line
  AUC: 0.3877
  Emax: 15.07
TE6 cell line
  AUC: 0.3625
  Emax: 14.02
TE8, oesophagus, squamous cell carcinoma, 168 hours
  AUC: 0.816
TE9 cell line
  AUC: 0.4247
  Emax: 25.31
TE10 cell line
  AUC: 0.5293
  Emax: 29.65
TE11 cell line
  AUC: 0.304
TE14 cell line
  AUC: 0.3068
  EC50: 2.32 nM
  IC50: 3.39 nM
TE15, oesophagus, squamous cell carcinoma, 168 hours
  AUC: 1.084
TF1 cell line
  AUC: 0.2883
THP1 cell line
  AUC: 0.3371
TOV112D cell line
  AUC: 0.3964
  Emax: 23.19
U2OS cell line
  AUC: 0.4065
  Emax: 9.064
U87MG cell line
  AUC: 0.514
  Emax: 38.45
U937 cell line
  AUC: 0.1808
UACC812, breast, ductal carcinoma, 168 hours
  AUC: 0.8418
UMUC3 cell line
  AUC: 0.5934
VCAP, prostate, adenocarcinoma, 168 hours
  AUC: 0.7822
WM115 cell line
  AUC: 0.6097
WM2664 cell line
  AUC: 0.5838
WSUDLCL2 cell line
  AUC: 0.2829
YD38 cell line
  AUC: 0.2983
  EC50: 3.55 nM
  IC50: 3.77 nM
